Assay [1] deals with uric acid-induced gouty arthritis pain in the rat. As to the kind of experiment: pain-induced functional impairment model in the rat (PIFIR), antinociceptive effects. It is filed as in vivo, male Wistar rats. The following applies: for Maximum efficacy (ABC: X ± E.E.): ABC of the FI % temporal curve over 4 h, at the dose that generates the maximum efficacy (S-ketorolac tromethamine 3.16 mg/kg, tramadol chlorhydrate 56.23 mg/kg); for Relative efficacy: compared to S-ketorolac tromethamine (= 1.0); for antinociceptive effects, dose dependence: single acute oral administration, evaluated for 4 hours, tramadol 5.6 to 56.2 mg/kg, S-ketorolac tromethamine 0.01 to 3.16 mg/kg. The source says:
In order to determine the antinociceptive effects, male Wistar rats weighing between 180 and 200 g were employed. These were handled in accordance with the Official Mexican Norm (NOM-062-ZOO-1999) and in accordance with the general principles of lab animal care (NIH publication #85-23, revised in 1985). The minimum number of test animals were used (6 animals per experimental point for antinociceptive effects, motor coordination, and gastrointestinal damage, and 10 animals per experimental point for adverse effects: lethal dose 50). The animals were kept in a room with alternate cycles of light/darkness. Twelve hours before the antinociceptive tests, the food was withdrawn, and they only had free access to water. All of these experiments were conducted during the light phase.
The analgesics were dissolved or suspended in carboxymethyl cellulose at 0.5% and administered orally in a volume of 4 ml/kg.
This methodology is commonly known as “pain-induced functional impairment model in the rat” (PIFIR). This methodology was used to determine and compare the antinociceptive effects of these analgesics.
The methodology of the PIFIR experimental procedure is briefly described below: The animals were anesthetized in an anesthesia chamber saturated with isoflurane vapors. The gouty arthritis was induced by applying an intra-articular injection (i.art.) with 0.05 ml of uric acid suspended in mineral oil (at 30%) in the right hind limb, exactly in the femur-tibia-patella joint.
A 1 ml glass syringe with a No. 22, 4 mm long needle was used for the i.art. injection. Immediately afterward, an electrode was fixed on each hind limb in the middle of the plantar calluses. After the rats recovered from the anesthesia, they were placed in a 30 cm diameter stainless steel rotating cylinder. The cylinder was rotated at 4 rpm, forcing the rats to walk for 2 minutes every half hour for a total of 6.5 hours (2.5 h to generate the gouty arthritis and 4 h to evaluate the antinociceptive effects of the analgesics). The variable measured was the time of contact of each one of the hind limbs of the rats in the cylinder.
When the electrode and the cylinder make contact, a circuit closes, and the relationship between the time of contact of the extremity to which the uric acid was administered as compared to the one to which uric acid was not administered was registered in a computer. The percentage functionality indexes (FI %) are calculated with these variables. Once the total dysfunction (FI=0%) was produced due to the effect of the uric acid, the corresponding doses of each analgesic were administered individually or in combination.
The medium and standard error of the evaluation of the antinociceptive effects are presented in all of the graphics as from time “0,” which is the moment at which the arthritis is completely developed in the rat and is the precise moment of the administration of tramadol chlorhydrate and S-ketorolac tromethamine.
With the administration of these doses, the complete doses-responses of S-ketorolac tromethamine and tramadol chlorhydrate were plotted separately in order to perform a comparative analysis for efficacy and potency. In the case of tramadol chlorhydrate, the curves were obtained through a single and acute 4-hour administration in doses with algorithmic increases (of 5.6 to 56.2 mg/kg), (FIG. 1). The S-ketorolac tromethamine temporal curves were obtained through acute administration evaluated for 4 hours in doses with algorithmic increases (from 0.01 to 3.16 mg/kg).
After this, 24 different combinations of S-ketorolac tromethamine and tramadol chlorhydrate were analyzed in order to detect the type of interaction and the most significant combinations due to the degree of efficacy or the degree of antinociceptive potency.

The nature of assay [2]: pharmacological / analgesic potency relative to comparators (no method given). It is filed as in vivo.
The conditions of assay [3]: background statement, cited from earlier work.

These results are taken from patent US20210069151A1, “[…] PHARMACEUTICAL COMBINATION OF THE ACTIVE ENANTIOMER S-KETOROLAC TR[…] TRAMADOL CHLORHYDRATE” (priority 2018, published 2021).

SMILES strings stand for the structures. “Also recorded” adds a separate entry of the source.

As to `COc1cccc([C@@]2(O)CCCC[C@@H]2CN(C)C)c1.Cl` (relative stereo) [Tramadol chlorhydrate, (1R,2R)-rel-2-[(dimethylamino)methyl]-1-(3-methoxyphenyl)cyclohexanol], in assay [1] (po), the “Maximum efficacy (ABC: X ± E.E.)” value is on record as 216.7 ± 19.1 au. Besides, in assay [1] (po, listed as tramadol chlorhydrate), the “Maximum efficacy (ABC: X ± E.E.)” value came out at 216.66 au. Also, in assay [1] (PIFIR, po), the “efficacy relative to that exhibited by S-ketorolac tromethamine” value stood at 70% and the Relative efficacy came out at 0.70. Besides, the “antinociceptive effects, dose dependence” value in assay [1] is on record as “doses-dependent antinociceptive effects; also recorded: antinociceptive effects that are dependent on the gouty arthritis-type pain dose”.
As for `O=C(c1ccccc1)c1ccc2n1CC[C@@H]2C(=O)O` [S-ketorolac tromethamine, 2-amino-2-hydroximethyl-1,3 propanediol (1:1) S-(−)-5-benzoyl-2,3-dihydro-1H-pyrrolizine-1-carboxylate], the “Maximum efficacy (ABC: X ± E.E.)” value in assay [1] (po) amounted to 310.5 ± 13.5 au. Further, the Relative efficacy in assay [1] (PIFIR, po) worked out at 1.0. Further, the “antinociceptive effects, dose dependence” value in assay [1] is “doses-dependent antinociceptive effects; also recorded: antinociceptive effects that are dependent on the gouty arthritis-type pain dose”. Moreover, the “potency relative to AA” value in assay [2] (times more potent than AA) is on record as 1037 times. In addition, in assay [2] (times more potent than morphine), the “potency relative to morphine” value turned out to be 82 times. Moreover, the “potency relative to rac-ketorolac” value in assay [2] (times more potent than rac-ketorolac) is given as 3.3 times. Moreover, the “potency ratio of the S (−) enantiomer” value in assay [3] (comparator not clearly printed) is “approximately 60 times”. Moreover, the “analgesic effect relative to the racemic form” value in assay [3] is listed as “almost double that of the racemic form”.
